Measured values from US20250034139A1, “AMINE COMPOUNDS HAVING ANTI-INFLAMMATORY, ANTIFUNGAL, ANTIPARASITIC, AND ANTICANCER ACTIVITY” (PHARMA CINQ, LLC, priority 2013, published 2025).

tested on: 4T1 murine breast cancer cells; test: Example S: in vitro anticancer screen, 4T1 cells, Wst1; type: cell-based, mouse; details: Mus musculus, 4T1, 18 h, 1 μM, 18 hr, Wst1; read-out: 4T1 1 μM, percent of cancer cell survival relative to vehicle treated cells
Description: Anticancer activity against 4T1 murine breast cancer cells cancer cells was assessed in vitro by seeding 1×10^4 cells/well in flat bottom culture plates, then treating with selected 1 μM or 5 μM concentrations of compounds for 18 hr after plating. Then 10 μL of Wst1 dye reagent, a tetrazolium dye indicator for […], was added/well and incubated approximately 2 hr before being assayed on the Biotek EL800 Universal microplate reader (450 nm, reference 630 nm).
Numerical values in the Table 37 represent percent of cancer cell survival relative to vehicle treated cells at the indicated concentrations, with values under 100 indicating anticancer cytotoxic activity at the drugs concentrations tested.

SMILES | viability at 1 µM [%]
COCCNc1ccnc2ccccc12 [BR, N-(2-Methoxyethyl)quinolin-4-amine] | 106
c1ccc2c(NCCN3CCOCC3)ccnc2c1 [BS, N-[2-(Morpholin-4-yl)ethyl]quinolin-4-amine] | 105
O=C(NCCCNc1ccnc2ccccc12)c1ccccc1 [BT, N-[3-(Quinolin-4-ylamino)propyl]benzamide] | 119
CCN(CC)CCNC(=O)c1ccc(Nc2ccnc3ccccc23)cc1 [BW, N-(2-Diethylaminoethyl)-4-(quinolin-4-ylamino)benzamide] | 123
CN(C)c1ccc(CNc2ccnc3ccccc23)cc1 [BX, N-(4-Dimethylaminobenzyl)quinolin-4-amine] | 116
c1ccc2c(NCc3ccncc3)ccnc2c1 [BZ, N-(Pyridin-4-ylmethyl)quinolin-4-amine] | 122
CCCCCCOCCCCCCCC(=O)NCc1ccncc1 [CA, N-(Pyridin-4-ylmethyl)-8-(hexyloxy)octanamide] | 108
CCCCCCOCCCCCCCC(=O)Nc1ccc2ncccc2c1 [CB, N-(Quinolin-6-yl)-8-(hexyloxy)octanamide] | 105
CCCCCCOCCCCCCCCn1cnc2ccccc21 [CC, 1-[8-(Hexyloxy)octyl]-1H-benzimidazole] | 110
CCCCCCOCCCCCCCCNc1ccnc2c(C(F)(F)F)cccc12 [CN, N-[8-(Hexyloxy)octyl]-8-(trifluoromethyl)quinolin-4-amine] | 32.5
c1ccc(-c2ccc(Nc3ccnc4ccccc34)cc2)cc1 [DC, N-(Biphenyl-4-yl)quinolin-4-amine] | 110
CCCCCC(=O)Nc1ccc(Nc2ccnc3ccccc23)cc1 [DG, N-[4-(Quinolin-4-ylamino)phenyl]hexanamide] | 105
CCCCCC(=O)Nc1cccc(Nc2ccnc3ccccc23)c1 [DH, N-[3-(Quinolin-4-ylamino)phenyl]hexanamide] | 96.6
COc1ccc(Nc2ccnc3ccccc23)cc1 [DI, N-(4-Methoxyphenyl)quinolin-4-amine] | 108
CCCCOc1ccc(Nc2ccnc3ccccc23)cc1 [DK, N-(4-Butoxyphenyl)quinolin-4-amine] | 102
c1ccc(CNc2ccnc3ccccc23)cc1 [DQ, N-Benzylquinolin-4-amine] | 99.5

SMILES | viability at 1 µM [%]
O=C(NCCCCNc1ccnc2ccccc12)c1ccccc1 [DW, N-[4-(Quinolin-4-ylamino)butyl]benzamide] | 102
O=C(NCCCCCCNc1ccnc2ccccc12)c1ccccc1 [DX, N-[6-(Quinolin-4-ylamino)hexyl]benzamide] | 112
c1ccc(CNc2ccnc3ccccc23)nc1 [EH, N-(Pyridin-2-ylmethyl)quinolin-4-amine] | 116
CCCCCCOCCCCCCCCNc1ccc2ncccc2c1 [EK, N-[8-(Hexyloxy)octyl]quinolin-6-amine] | 116
CCCCCCOCCCCCCCCNc1cccc2cccnc12 [EM, N-[8-(Hexyloxy)octyl]quinolin-8-amine] | 106
CCCCCCOCCCCCCCCNc1cc(C(F)(F)F)nc2ccccc12 [EN, N-[8-(Hexyloxy)octyl]-2-(trifluoromethyl)quinolin-4-amine] | 93.3
CCCCC(OC(C)=O)c1nc2c(N)nc3ccccc3c2n1CC(C)C (stereo not shown) [FC, 1-(4-Amino-1-isobutyl-1H-imidazo[4,5-c]quinolin-2-yl)pentyl acetate] | 115
COCCCCCCCCNc1ccncc1 [FN, N-(8-Methoxyoctyl)pyridin-4-amine] | 92.9
CCCCCCOCCCCCCCCNc1cccnc1 [FO, N-[8-(Hexyloxy)octyl]pyridin-3-amine] | 106
CCCCCCOCCCCCCCCNc1ccccn1 [FP, N-[8-(Hexyloxy)octyl]pyridin-2-amine] | 116
CCCCCCOCCCCCCCCNc1ncccn1 [FQ] | 110
CCCCCCOCCCCCCCCNc1nccc2ccccc12 [FS, N-[8-(Hexyloxy)octyl]isoquinolin-1-amine] | 122
CCCCCCOCCCCCCCCNc1cnc2ccccc2n1 [FU, N-[8-(Hexyloxy)octyl]quinoxalin-2-amine] | 118
CCCCCCOCCCCCCCCNc1cnccn1 [FV, N-[8-(Hexyloxy)octyl]pyrazin-2-amine] | 104
CCCCCCOCCCCCCCCn1cnc2cccnc21 [FX, 3-[8-(Hexyloxy)octyl]-3H-imidazo[4,5-b]pyridine] | 112

same assay, conditions: Mus musculus, 4T1, 18 h, 5 μM, 18 hr, Wst1; read-out: 4T1 5 μM, percent of cancer cell survival relative to vehicle treated cells

SMILES | viability at 5 µM [%]
COCCNc1ccnc2ccccc12 [BR, N-(2-Methoxyethyl)quinolin-4-amine] | 122
c1ccc2c(NCCN3CCOCC3)ccnc2c1 [BS, N-[2-(Morpholin-4-yl)ethyl]quinolin-4-amine] | 117
O=C(NCCCNc1ccnc2ccccc12)c1ccccc1 [BT, N-[3-(Quinolin-4-ylamino)propyl]benzamide] | 121
CCN(CC)CCNC(=O)c1ccc(Nc2ccnc3ccccc23)cc1 [BW, N-(2-Diethylaminoethyl)-4-(quinolin-4-ylamino)benzamide] | 236
CN(C)c1ccc(CNc2ccnc3ccccc23)cc1 [BX, N-(4-Dimethylaminobenzyl)quinolin-4-amine] | 116
c1ccc2c(NCc3ccncc3)ccnc2c1 [BZ, N-(Pyridin-4-ylmethyl)quinolin-4-amine] | 260
CCCCCCOCCCCCCCC(=O)NCc1ccncc1 [CA, N-(Pyridin-4-ylmethyl)-8-(hexyloxy)octanamide] | 109
CCCCCCOCCCCCCCC(=O)Nc1ccc2ncccc2c1 [CB, N-(Quinolin-6-yl)-8-(hexyloxy)octanamide] | 102
CCCCCCOCCCCCCCCn1cnc2ccccc21 [CC, 1-[8-(Hexyloxy)octyl]-1H-benzimidazole] | 99.5
CCCCCCOCCCCCCCCNc1ccnc2c(C(F)(F)F)cccc12 [CN, N-[8-(Hexyloxy)octyl]-8-(trifluoromethyl)quinolin-4-amine] | 18.8
c1ccc(-c2ccc(Nc3ccnc4ccccc34)cc2)cc1 [DC, N-(Biphenyl-4-yl)quinolin-4-amine] | 96.7
CCCCCC(=O)Nc1ccc(Nc2ccnc3ccccc23)cc1 [DG, N-[4-(Quinolin-4-ylamino)phenyl]hexanamide] | 94.7
CCCCCC(=O)Nc1cccc(Nc2ccnc3ccccc23)c1 [DH, N-[3-(Quinolin-4-ylamino)phenyl]hexanamide] | 112
COc1ccc(Nc2ccnc3ccccc23)cc1 [DI, N-(4-Methoxyphenyl)quinolin-4-amine] | 126
CCCCOc1ccc(Nc2ccnc3ccccc23)cc1 [DK, N-(4-Butoxyphenyl)quinolin-4-amine] | 87.6
c1ccc(CNc2ccnc3ccccc23)cc1 [DQ, N-Benzylquinolin-4-amine] | 122

SMILES | viability at 5 µM [%]
O=C(NCCCCNc1ccnc2ccccc12)c1ccccc1 [DW, N-[4-(Quinolin-4-ylamino)butyl]benzamide] | 194
O=C(NCCCCCCNc1ccnc2ccccc12)c1ccccc1 [DX, N-[6-(Quinolin-4-ylamino)hexyl]benzamide] | 105
c1ccc(CNc2ccnc3ccccc23)nc1 [EH, N-(Pyridin-2-ylmethyl)quinolin-4-amine] | 128
CCCCCCOCCCCCCCCNc1ccc2ncccc2c1 [EK, N-[8-(Hexyloxy)octyl]quinolin-6-amine] | 114
CCCCCCOCCCCCCCCNc1cccc2cccnc12 [EM, N-[8-(Hexyloxy)octyl]quinolin-8-amine] | 93
CCCCCCOCCCCCCCCNc1cc(C(F)(F)F)nc2ccccc12 [EN, N-[8-(Hexyloxy)octyl]-2-(trifluoromethyl)quinolin-4-amine] | 89.8
CCCCC(OC(C)=O)c1nc2c(N)nc3ccccc3c2n1CC(C)C (stereo not shown) [FC, 1-(4-Amino-1-isobutyl-1H-imidazo[4,5-c]quinolin-2-yl)pentyl acetate] | 123
COCCCCCCCCNc1ccncc1 [FN, N-(8-Methoxyoctyl)pyridin-4-amine] | 79.4
CCCCCCOCCCCCCCCNc1cccnc1 [FO, N-[8-(Hexyloxy)octyl]pyridin-3-amine] | 146
CCCCCCOCCCCCCCCNc1ccccn1 [FP, N-[8-(Hexyloxy)octyl]pyridin-2-amine] | 116
CCCCCCOCCCCCCCCNc1ncccn1 [FQ] | 98
CCCCCCOCCCCCCCCNc1nccc2ccccc12 [FS, N-[8-(Hexyloxy)octyl]isoquinolin-1-amine] | 107
CCCCCCOCCCCCCCCNc1cnc2ccccc2n1 [FU, N-[8-(Hexyloxy)octyl]quinoxalin-2-amine] | 106
CCCCCCOCCCCCCCCNc1cnccn1 [FV, N-[8-(Hexyloxy)octyl]pyrazin-2-amine] | 101
CCCCCCOCCCCCCCCn1cnc2cccnc21 [FX, 3-[8-(Hexyloxy)octyl]-3H-imidazo[4,5-b]pyridine] | 96.6

tested on: THP-1 cells; test: Example D: LPS-triggered THP-1 cell death assay, acute/5-hour and chronic/48-hour; type: cell-based, Human; details: 10 ng/ml LPS, 0.1 μM test compound, 48 hours
Description: Compounds of the invention were tested at 0.1 μM versus AC in the LPS-triggered THP-1 cell death assay. Both acute/5-hour and chronic/48-hour phases of cell death were assessed. Compounds were screened in batches with DMSO as the negative control and AC as the high activity control.

SMILES | Viable cell percent change, Chronic/48-hour, Mean [%]
O=C(NCCCNc1ccnc2ccccc12)c1ccccc1 [BT, N-[3-(Quinolin-4-ylamino)propyl]benzamide] | 66.98
CCN(CC)CCNC(=O)c1ccc(Nc2ccnc3ccccc23)cc1 [BW, N-(2-Diethylaminoethyl)-4-(quinolin-4-ylamino)benzamide] | 36.08
CN(C)c1ccc(CNc2ccnc3ccccc23)cc1 [BX, N-(4-Dimethylaminobenzyl)quinolin-4-amine] | 25.10
c1ccc2c(NCc3ccncc3)ccnc2c1 [BZ, N-(Pyridin-4-ylmethyl)quinolin-4-amine] | 30.72
CCCCCCOCCCCCCCC(=O)Nc1ccc2ncccc2c1 [CB, N-(Quinolin-6-yl)-8-(hexyloxy)octanamide] | 10.62
CCCCCCCCCCOc1cccc(CNc2ncnc3ccccc23)c1 [CG, N-[3-(Decyloxy)benzyl]quinazolin-4-amine] | 54.66
CCCCCCOCCCCCCCCNc1ccnc2c(C(F)(F)F)cccc12 [CN, N-[8-(Hexyloxy)octyl]-8-(trifluoromethyl)quinolin-4-amine] | 3.70
c1ccc(-c2ccc(Nc3ccnc4ccccc34)cc2)cc1 [DC, N-(Biphenyl-4-yl)quinolin-4-amine] | 87.66
CCCCCC(=O)Nc1ccc(Nc2ccnc3ccccc23)cc1 [DG, N-[4-(Quinolin-4-ylamino)phenyl]hexanamide] | 37.90
CCCCCC(=O)Nc1cccc(Nc2ccnc3ccccc23)c1 [DH, N-[3-(Quinolin-4-ylamino)phenyl]hexanamide] | 50.89
COc1ccc(Nc2ccnc3ccccc23)cc1 [DI, N-(4-Methoxyphenyl)quinolin-4-amine] | 82.24
CCCCOc1ccc(Nc2ccnc3ccccc23)cc1 [DK, N-(4-Butoxyphenyl)quinolin-4-amine] | 73.60
c1ccc(CNc2ccnc3ccccc23)cc1 [DQ, N-Benzylquinolin-4-amine] | 32.31
CCCCCCCCCCOc1ccc(CNc2ccnc3ccccc23)cc1 [DT, N-[4-(Decyloxy)benzyl]quinolin-4-amine] | 16.12
c1ccc(CCOc2cccc(CNc3ccnc4ccccc34)c2)cc1 [DV, N-(3-Phenethoxybenzyl)quinolin-4-amine] | 24.69
O=C(NCCCCNc1ccnc2ccccc12)c1ccccc1 [DW, N-[4-(Quinolin-4-ylamino)butyl]benzamide] | 73.97
O=C(NCCCCCCNc1ccnc2ccccc12)c1ccccc1 [DX, N-[6-(Quinolin-4-ylamino)hexyl]benzamide] | 59.95
CCCCCCOc1ccccc1C(=O)NCCCCNc1ccnc2ccccc12 [ED, 2-(Hexyloxy)-N-[4-(quinolin-4-ylamino)butyl]benzamide] | 81.40
c1ccc(CNc2ccnc3ccccc23)nc1 [EH, N-(Pyridin-2-ylmethyl)quinolin-4-amine] | 32.85
CCCCCCOCCCCCCCCNc1ccc2ncccc2c1 [EK, N-[8-(Hexyloxy)octyl]quinolin-6-amine] | 15.50
CCCCCCOCCCCCCCCNc1cc(C(F)(F)F)nc2ccccc12 [EN, N-[8-(Hexyloxy)octyl]-2-(trifluoromethyl)quinolin-4-amine] | 6.64
CCCCCCCCCCCCCCCCn1cnc2cnccc21 [FM, 1-Hexadecyl-1H-imidazo[4,5-c]pyridine] | 9.74
COCCCCCCCCNc1ccncc1 [FN, N-(8-Methoxyoctyl)pyridin-4-amine] | 3.54
CCCCCCOCCCCCCCCNc1cccnc1 [FO, N-[8-(Hexyloxy)octyl]pyridin-3-amine] | 20.18
CCCCCCOCCCCCCCCNc1ccccn1 [FP, N-[8-(Hexyloxy)octyl]pyridin-2-amine] | 30.44
CCCCCCOCCCCCCCCNc1ncccn1 [FQ] | 25.62
CCCCCCOCCCCCCCCNc1cnccn1 [FV, N-[8-(Hexyloxy)octyl]pyrazin-2-amine] | 17.51

tested on: PC-3 prostate cancer cells; test: Example T: sensitisation of PC-3 cells to doxorubicin, oxaliplatin, paclitaxel or vincristine, Wst1; type: cell-based, human; details: Homo sapiens; PC-3 cells; compound 0.4 μM alone; 72 hours; Wst1; vehicle = 100; read-out: No Chemo: percent cell survival

SMILES | viability at 0.4 µM [%]
c1ccc(CCOc2cccc(CNc3ccnc4ccccc34)c2)cc1 [DV, N-(3-Phenethoxybenzyl)quinolin-4-amine] | 31.6

same assay, conditions: PC-3 cells; compound 0.4 μM + doxorubicin 3.5 μM; 72 hours; chemotherapy agent alone normalized to 100%

SMILES | Doxorubicin 3.5 μM: percent cell survival [%]
c1ccc(CCOc2cccc(CNc3ccnc4ccccc34)c2)cc1 [DV, N-(3-Phenethoxybenzyl)quinolin-4-amine] | 76.7

same assay, conditions: PC-3 cells; compound 0.4 μM + oxaliplatin 100 μM; 72 hours; chemotherapy agent alone normalized to 100%

SMILES | Oxaliplatin 100 μM: percent cell survival [%]
c1ccc(CCOc2cccc(CNc3ccnc4ccccc34)c2)cc1 [DV, N-(3-Phenethoxybenzyl)quinolin-4-amine] | 61.9

same assay, conditions: PC-3 cells; compound 0.4 μM + paclitaxel 50 μM; 72 hours; chemotherapy agent alone normalized to 100%

SMILES | Paclitaxel 50 μM: percent cell survival [%]
c1ccc(CCOc2cccc(CNc3ccnc4ccccc34)c2)cc1 [DV, N-(3-Phenethoxybenzyl)quinolin-4-amine] | 23.3

same assay, conditions: PC-3 cells; compound 0.4 μM + vincristine 100 nM; 72 hours; chemotherapy agent alone normalized to 100%

SMILES | Vincristine 100 nM: percent cell survival [%]
c1ccc(CCOc2cccc(CNc3ccnc4ccccc34)c2)cc1 [DV, N-(3-Phenethoxybenzyl)quinolin-4-amine] | 32.2
